Measured values as given in patent publication US9586936B2, “Heteroarylamine derivatives as protein kinase inhibitors” (KOREA INSTITUTE OF SCIENCE AND TECHNOLOGY, priority 2014, dated 2017).

Assays:
ABL2 = ABL2 (Homo sapiens, UniProt P42684); assay: kinase inhibition activity, full kinase panel; format: biochemical; settings: 1 μM of the compound; read-out: kinase activity inhibited (% inhibition)
Method: (§1) In order to measure the inhibition activity (% inhibition) of the compound of the present invention against protein kinases, a biochemical assay was conducted using a full kinase panel consisting of 340 kinases. As a representative compound of the present invention, N-(2,6-dichloro-3,5-dimethoxyphenyl)-1-(6-((4-(4-ethylpiperazin-1-yl)phenyl)amino)pyrimidin-4-yl)-1H-benz[d]imidazol-2-amine synthesized in Example 1 was used.
(§2) The kinases whose activity is inhibited by 50% or more when treated with 1 μM of the compound of Example 1 are listed in Table 1.

ACK1 = ACK1 (Homo sapiens, UniProt Q07912); assay: kinase inhibition activity, full kinase panel; format: biochemical; settings: 1 μM of the compound; read-out: kinase activity inhibited (% inhibition)
Method: as §1, §2

ALK = ALK (Homo sapiens, UniProt Q9UM73); assay: kinase inhibition activity, full kinase panel; format: biochemical; settings: 1 μM of the compound; read-out: kinase activity inhibited (% inhibition)
Method: as §1, §2

BLK = BLK (Homo sapiens, UniProt P51451); assay: kinase inhibition activity, full kinase panel; format: biochemical; settings: 1 μM of the compound; read-out: kinase activity inhibited (% inhibition)
Sequence of BLK (P51451 whole entry): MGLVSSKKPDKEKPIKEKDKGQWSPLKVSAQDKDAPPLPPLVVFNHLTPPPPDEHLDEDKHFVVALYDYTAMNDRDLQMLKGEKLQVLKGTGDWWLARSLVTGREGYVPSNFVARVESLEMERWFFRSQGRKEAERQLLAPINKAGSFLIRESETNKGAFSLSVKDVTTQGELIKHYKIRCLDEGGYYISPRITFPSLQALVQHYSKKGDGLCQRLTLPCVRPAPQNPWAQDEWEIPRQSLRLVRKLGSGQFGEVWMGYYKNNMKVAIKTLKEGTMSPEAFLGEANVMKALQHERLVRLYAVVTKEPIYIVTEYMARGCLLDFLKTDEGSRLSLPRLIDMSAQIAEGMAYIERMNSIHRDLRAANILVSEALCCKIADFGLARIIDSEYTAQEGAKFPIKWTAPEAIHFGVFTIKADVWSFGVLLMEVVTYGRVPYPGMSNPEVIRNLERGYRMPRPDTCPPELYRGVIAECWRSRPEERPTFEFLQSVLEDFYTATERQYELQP
Method: as §1, §2

BMX = BMX (Homo sapiens, UniProt P51813); assay: kinase inhibition activity, full kinase panel; format: biochemical; settings: 1 μM of the compound; read-out: kinase activity inhibited (% inhibition)
Method: as §1, §2

DDR1 = DDR1 (Homo sapiens, UniProt Q08345); assay: kinase inhibition activity, full kinase panel; format: biochemical; settings: 1 μM of the compound; read-out: kinase activity inhibited (% inhibition)
Method: as §1, §2

DYRK1 = DYRK1 (Homo sapiens, UniProt Q13627); assay: kinase inhibition activity, full kinase panel; format: biochemical; settings: 1 μM of the compound; read-out: kinase activity inhibited (% inhibition)
Method: as §1, §2

DYRK1B = DYRK1B (Homo sapiens, UniProt Q9Y463); assay: kinase inhibition activity, full kinase panel; format: biochemical; settings: 1 μM of the compound; read-out: kinase activity inhibited (% inhibition)
Method: as §1, §2

EGFR = EGFR (Homo sapiens, UniProt P00533); assay: kinase inhibition activity, full kinase panel; format: biochemical; settings: 1 μM of the compound; read-out: kinase activity inhibited (% inhibition)
Sequence of EGFR (P00533 25-1210): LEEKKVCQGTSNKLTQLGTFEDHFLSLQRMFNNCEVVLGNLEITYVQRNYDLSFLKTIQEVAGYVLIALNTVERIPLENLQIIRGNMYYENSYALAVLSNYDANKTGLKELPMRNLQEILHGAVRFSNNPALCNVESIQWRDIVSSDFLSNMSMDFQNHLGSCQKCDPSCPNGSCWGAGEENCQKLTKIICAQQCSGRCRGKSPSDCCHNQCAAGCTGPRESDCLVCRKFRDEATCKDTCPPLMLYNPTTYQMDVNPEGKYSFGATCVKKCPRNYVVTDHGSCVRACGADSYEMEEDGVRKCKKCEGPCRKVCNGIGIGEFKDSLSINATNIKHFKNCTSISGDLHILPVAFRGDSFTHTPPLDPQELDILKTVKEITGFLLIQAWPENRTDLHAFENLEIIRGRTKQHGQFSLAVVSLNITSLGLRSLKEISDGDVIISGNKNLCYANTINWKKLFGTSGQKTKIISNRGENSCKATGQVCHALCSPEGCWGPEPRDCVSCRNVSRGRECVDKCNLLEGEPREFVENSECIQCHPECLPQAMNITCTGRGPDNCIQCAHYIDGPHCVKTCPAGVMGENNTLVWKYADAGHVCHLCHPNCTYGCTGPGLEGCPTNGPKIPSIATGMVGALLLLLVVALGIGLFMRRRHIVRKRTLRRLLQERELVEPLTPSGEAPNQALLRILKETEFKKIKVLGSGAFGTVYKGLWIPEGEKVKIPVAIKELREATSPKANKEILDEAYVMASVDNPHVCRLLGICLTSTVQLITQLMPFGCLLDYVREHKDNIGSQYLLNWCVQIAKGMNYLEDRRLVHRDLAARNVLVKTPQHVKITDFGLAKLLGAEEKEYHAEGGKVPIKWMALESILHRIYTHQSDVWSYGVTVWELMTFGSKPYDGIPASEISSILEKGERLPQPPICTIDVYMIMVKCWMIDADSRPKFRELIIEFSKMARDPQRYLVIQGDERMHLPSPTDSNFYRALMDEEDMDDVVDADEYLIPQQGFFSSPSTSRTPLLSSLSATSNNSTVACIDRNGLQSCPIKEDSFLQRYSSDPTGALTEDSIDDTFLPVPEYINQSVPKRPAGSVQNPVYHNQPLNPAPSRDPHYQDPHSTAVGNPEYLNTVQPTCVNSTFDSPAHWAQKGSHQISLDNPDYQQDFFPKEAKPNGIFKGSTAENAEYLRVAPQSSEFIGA
Method: as §1, §2

FGFR3 = FGFR3 (Homo sapiens, UniProt P22607); assay: kinase inhibition activity, full kinase panel; format: biochemical; settings: 1 μM of the compound; read-out: kinase activity inhibited (% inhibition)
Method: as §1, §2

FLT3 = FLT3 (Homo sapiens, UniProt P36888); assay: kinase inhibition activity, full kinase panel; format: biochemical; settings: 1 μM of the compound; read-out: kinase activity inhibited (% inhibition)
Method: as §1, §2

FLT4 = FLT4 (Homo sapiens, UniProt P35916); assay: kinase inhibition activity, full kinase panel; format: biochemical; settings: 1 μM of the compound; read-out: kinase activity inhibited (% inhibition)
Method: as §1, §2

FMS = FMS (Homo sapiens, UniProt P07333); assay: kinase inhibition activity, full kinase panel; format: biochemical; settings: 1 μM of the compound; read-out: kinase activity inhibited (% inhibition)
Method: as §1, §2

LYN = LYN (Homo sapiens, UniProt P07948); assay: kinase inhibition activity, full kinase panel; format: biochemical; settings: 1 μM of the compound; read-out: kinase activity inhibited (% inhibition)
Sequence of LYN (P07948 whole entry): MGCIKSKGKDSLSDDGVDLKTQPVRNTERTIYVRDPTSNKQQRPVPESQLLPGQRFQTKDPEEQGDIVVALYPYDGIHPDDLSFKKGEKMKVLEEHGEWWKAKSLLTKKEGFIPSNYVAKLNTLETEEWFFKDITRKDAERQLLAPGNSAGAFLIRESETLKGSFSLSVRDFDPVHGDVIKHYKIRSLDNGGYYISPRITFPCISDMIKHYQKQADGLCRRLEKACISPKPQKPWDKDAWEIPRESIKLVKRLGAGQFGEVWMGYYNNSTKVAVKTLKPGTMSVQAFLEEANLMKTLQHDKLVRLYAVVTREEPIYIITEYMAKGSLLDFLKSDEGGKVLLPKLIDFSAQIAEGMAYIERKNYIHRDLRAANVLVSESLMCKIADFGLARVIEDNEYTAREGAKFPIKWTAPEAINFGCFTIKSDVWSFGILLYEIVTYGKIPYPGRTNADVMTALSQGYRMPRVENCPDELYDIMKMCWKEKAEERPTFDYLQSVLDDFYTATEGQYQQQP
Method: as §1, §2

MEKK3 = MEKK3 (Homo sapiens, UniProt Q99759); assay: kinase inhibition activity, full kinase panel; format: biochemical; settings: 1 μM of the compound; read-out: kinase activity inhibited (% inhibition)
Method: as §1, §2

ROS = ROS (Homo sapiens, UniProt P08922); assay: kinase inhibition activity, full kinase panel; format: biochemical; settings: 1 μM of the compound; read-out: kinase activity inhibited (% inhibition)
Method: as §1, §2

SIK1 = SIK1 (Homo sapiens, UniProt P57059); assay: kinase inhibition activity, full kinase panel; format: biochemical; settings: 1 μM of the compound; read-out: kinase activity inhibited (% inhibition)
Sequence of SIK1 (P57059 whole entry): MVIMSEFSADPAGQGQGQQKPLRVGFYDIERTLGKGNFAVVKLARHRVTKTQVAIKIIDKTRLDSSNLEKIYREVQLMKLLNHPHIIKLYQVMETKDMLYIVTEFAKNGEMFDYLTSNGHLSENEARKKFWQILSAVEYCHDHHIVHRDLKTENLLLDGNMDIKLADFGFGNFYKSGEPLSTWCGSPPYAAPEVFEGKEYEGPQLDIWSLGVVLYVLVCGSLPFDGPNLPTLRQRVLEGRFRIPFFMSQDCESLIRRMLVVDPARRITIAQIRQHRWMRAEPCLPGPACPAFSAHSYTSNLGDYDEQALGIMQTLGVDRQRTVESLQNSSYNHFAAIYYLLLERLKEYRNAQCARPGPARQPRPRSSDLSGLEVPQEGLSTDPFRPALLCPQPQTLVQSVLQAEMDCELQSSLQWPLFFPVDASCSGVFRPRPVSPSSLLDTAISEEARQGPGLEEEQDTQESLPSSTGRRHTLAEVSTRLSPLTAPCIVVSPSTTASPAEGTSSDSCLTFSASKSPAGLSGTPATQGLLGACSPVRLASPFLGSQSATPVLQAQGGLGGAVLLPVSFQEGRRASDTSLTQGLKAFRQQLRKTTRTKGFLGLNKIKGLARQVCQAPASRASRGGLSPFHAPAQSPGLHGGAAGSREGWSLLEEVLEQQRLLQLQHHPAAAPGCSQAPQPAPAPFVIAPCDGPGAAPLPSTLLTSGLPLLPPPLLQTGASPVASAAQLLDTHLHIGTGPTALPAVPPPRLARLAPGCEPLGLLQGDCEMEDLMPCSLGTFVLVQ
Method: as §1, §2

SIK3 = SIK3 (Homo sapiens, UniProt Q9Y2K2); assay: kinase inhibition activity, full kinase panel; format: biochemical; settings: 1 μM of the compound; read-out: kinase activity inhibited (% inhibition)
Method: as §1, §2

TAOK1 = TAOK1 (Homo sapiens, UniProt Q7L7X3); assay: kinase inhibition activity, full kinase panel; format: biochemical; settings: 1 μM of the compound; read-out: kinase activity inhibited (% inhibition)
Method: as §1, §2

TAOK2 = TAOK2 (Homo sapiens, UniProt Q9UL54); assay: kinase inhibition activity, full kinase panel; format: biochemical; settings: 1 μM of the compound; read-out: kinase activity inhibited (% inhibition)
Method: as §1, §2

TNK1 = TNK1 (Homo sapiens, UniProt Q13470); assay: kinase inhibition activity, full kinase panel; format: biochemical; settings: 1 μM of the compound; read-out: kinase activity inhibited (% inhibition)
Method: as §1, §2

c-Kit = c-Kit (Homo sapiens, UniProt P10721); assay: kinase inhibition activity, full kinase panel; format: biochemical; settings: 1 μM of the compound; read-out: kinase activity inhibited (% inhibition)
Method: as §1, §2

CYP2C19 = CYP2C19 (Homo sapiens, UniProt P33261); assay: inhibition activity against CYPs (cytochromes P450); format: in vitro ADME
Sequence of CYP2C19 (P33261 whole entry): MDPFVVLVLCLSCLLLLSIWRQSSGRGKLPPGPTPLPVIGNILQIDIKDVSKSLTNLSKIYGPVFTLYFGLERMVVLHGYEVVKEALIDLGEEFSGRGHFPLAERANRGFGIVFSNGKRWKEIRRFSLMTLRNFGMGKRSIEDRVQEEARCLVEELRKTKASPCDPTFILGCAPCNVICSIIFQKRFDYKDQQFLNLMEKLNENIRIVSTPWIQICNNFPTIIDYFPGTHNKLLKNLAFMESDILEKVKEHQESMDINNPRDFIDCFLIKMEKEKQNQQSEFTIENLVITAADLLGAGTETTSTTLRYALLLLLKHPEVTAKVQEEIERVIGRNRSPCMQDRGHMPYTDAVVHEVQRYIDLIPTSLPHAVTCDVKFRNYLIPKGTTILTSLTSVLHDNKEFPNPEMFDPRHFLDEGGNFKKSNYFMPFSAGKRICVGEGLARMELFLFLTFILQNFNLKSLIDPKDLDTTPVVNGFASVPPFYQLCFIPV
Method: (§3) The inhibition activity (inhibition rate, %) of N-(2,6-dichloro-3,5-dimethoxyphenyl)-1-(6-((4-(4-ethylpiperazin-1-yl)phenyl)amino)pyrimidin-4-yl)-1H-benz[d]imidazol-2-amine synthesized in Example 1, as a representative compound of the present invention, against CYPs (cytochromes P450) was measured in order to investigate the risk of drug side effects.

CYP2C9 = CYP2C9 (Homo sapiens, UniProt P11712); assay: as above; format: in vitro ADME
Sequence of CYP2C9 (P11712 whole entry): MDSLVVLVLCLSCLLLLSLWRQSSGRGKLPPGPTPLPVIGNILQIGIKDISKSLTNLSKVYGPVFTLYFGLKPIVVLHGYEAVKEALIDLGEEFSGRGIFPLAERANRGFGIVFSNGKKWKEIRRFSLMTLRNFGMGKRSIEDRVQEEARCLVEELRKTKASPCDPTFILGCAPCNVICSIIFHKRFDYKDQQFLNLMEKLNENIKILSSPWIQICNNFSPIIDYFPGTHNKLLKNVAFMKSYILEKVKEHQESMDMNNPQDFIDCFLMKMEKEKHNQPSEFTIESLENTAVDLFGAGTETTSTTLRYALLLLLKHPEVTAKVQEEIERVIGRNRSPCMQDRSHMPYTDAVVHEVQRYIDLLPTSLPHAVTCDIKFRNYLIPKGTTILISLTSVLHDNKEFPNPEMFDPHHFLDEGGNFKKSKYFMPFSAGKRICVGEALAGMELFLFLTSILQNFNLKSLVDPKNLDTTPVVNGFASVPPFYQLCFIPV
Method: as §3

CYP2D6 = CYP2D6 (Homo sapiens, UniProt P10635); assay: as above; format: in vitro ADME
Sequence of CYP2D6 (P10635 whole entry): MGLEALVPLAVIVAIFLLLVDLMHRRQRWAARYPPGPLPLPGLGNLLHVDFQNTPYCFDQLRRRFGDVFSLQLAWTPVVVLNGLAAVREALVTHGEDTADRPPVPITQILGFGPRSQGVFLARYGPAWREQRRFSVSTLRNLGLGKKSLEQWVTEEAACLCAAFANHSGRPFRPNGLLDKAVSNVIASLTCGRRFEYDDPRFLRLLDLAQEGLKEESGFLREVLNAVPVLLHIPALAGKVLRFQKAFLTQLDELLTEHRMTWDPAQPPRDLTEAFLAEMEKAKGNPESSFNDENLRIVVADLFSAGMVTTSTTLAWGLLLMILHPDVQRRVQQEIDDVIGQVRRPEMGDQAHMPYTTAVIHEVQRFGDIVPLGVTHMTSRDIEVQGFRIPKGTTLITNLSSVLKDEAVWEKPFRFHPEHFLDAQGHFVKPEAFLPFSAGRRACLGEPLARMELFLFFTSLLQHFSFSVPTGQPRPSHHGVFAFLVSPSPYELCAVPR
Method: as §3

CYP3A4 = CYP3A4 (Homo sapiens, UniProt P08684); assay: as above; format: in vitro ADME
Sequence of CYP3A4 (P08684 whole entry): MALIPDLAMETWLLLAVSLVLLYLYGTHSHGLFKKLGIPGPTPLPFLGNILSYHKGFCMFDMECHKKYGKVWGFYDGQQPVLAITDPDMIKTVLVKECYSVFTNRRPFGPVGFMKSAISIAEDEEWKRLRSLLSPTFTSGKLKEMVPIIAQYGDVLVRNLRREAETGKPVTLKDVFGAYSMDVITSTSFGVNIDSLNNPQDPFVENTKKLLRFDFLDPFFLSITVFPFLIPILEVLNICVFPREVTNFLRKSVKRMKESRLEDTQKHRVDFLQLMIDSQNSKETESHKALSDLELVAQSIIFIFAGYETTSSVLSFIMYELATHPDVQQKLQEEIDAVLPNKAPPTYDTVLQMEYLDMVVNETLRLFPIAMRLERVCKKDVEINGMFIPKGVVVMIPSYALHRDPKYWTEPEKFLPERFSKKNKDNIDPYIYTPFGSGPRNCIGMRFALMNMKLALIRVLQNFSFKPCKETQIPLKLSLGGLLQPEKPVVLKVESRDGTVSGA
Method: as §3

[1] = from 0.1-50 μM, unit from the table's concentration head, read-out: Expected IC50

CCN1CCN(c2ccc(Nc3cc(-n4c(Nc5c(Cl)c(OC)cc(OC)c5Cl)nc5ccccc54)ncn3)cc2)CC1 [Example 1, N-(2,6-dichloro-3,5-dimethoxyphenyl)-1-(6-((4-(4-ethylpiperazin-1-yl)phenyl)amino)pyrimidin-4-yl)-1H-benz[d]imidazol-2-amine]
inhibition at 1 µM (ABL2): ≥ 50% | inhibition at 1 µM (ACK1): ≥ 50% | inhibition at 1 µM (ALK): ≥ 50% | inhibition at 1 µM (BLK): ≥ 50% | inhibition at 1 µM (BMX): ≥ 50% | inhibition at 1 µM (DDR1): ≥ 50% | inhibition at 1 µM (DYRK1): ≥ 50% | inhibition at 1 µM (DYRK1B): ≥ 50% | inhibition at 1 µM (EGFR): ≥ 50% | inhibition at 1 µM (FGFR3): ≥ 50% | inhibition at 1 µM (FLT3): ≥ 50% | inhibition at 1 µM (FLT4): ≥ 50% | inhibition at 1 µM (FMS): ≥ 50% | inhibition at 1 µM (LYN): ≥ 50% | inhibition at 1 µM (MEKK3): ≥ 50% | inhibition at 1 µM (ROS): ≥ 50% | inhibition at 1 µM (SIK1): ≥ 50% | inhibition at 1 µM (SIK3): ≥ 50% | inhibition at 1 µM (TAOK1): ≥ 50% | inhibition at 1 µM (TAOK2): ≥ 50% | inhibition at 1 µM (TNK1): ≥ 50% | inhibition at 1 µM (c-Kit): ≥ 50% | inhibition at 10 µM (CYP2C19; concentration 10 μM): 37.3% | IC50 (CYP2C19; [1]): 16.6 µM | inhibition at 0.1 µM (CYP2C19; human, concentration 0.1 μM): 2.72% | inhibition at 0.5 µM (CYP2C19; human, concentration 0.5 μM): 3.23% | inhibition at 5 µM (CYP2C19; human, concentration 5 μM): 30% | inhibition at 25 µM (CYP2C19; human, concentration 25 μM): 66.1% | inhibition at 50 µM (CYP2C19; human, concentration 50 μM): 68% | inhibition activity against CYP, statement in words (CYP2C19; summary of Table 5): no inhibition activity | IC50 (CYP2C9; [1]): 44.8 µM | inhibition at 0.1 µM (CYP2C9; human, concentration 0.1 μM): 10.3% | inhibition at 0.5 µM (CYP2C9; human, concentration 0.5 μM): 8.79% | inhibition at 5 µM (CYP2C9; human, concentration 5 μM): 24.6% | inhibition at 10 µM (CYP2C9; human, concentration 10 μM): 30% | inhibition at 25 µM (CYP2C9; human, concentration 25 μM): 52.4% | inhibition at 50 µM (CYP2C9; human, concentration 50 μM): 53.4% | inhibition activity against CYP, statement in words (CYP2C9; summary of Table 5): no inhibition activity | inhibition at 10 µM (CYP2D6; concentration 10 μM): 6.12% | IC50 (CYP2D6; [1]): > 50 µM | inhibition at 0.1 µM (CYP2D6; human, concentration 0.1 μM): -3.15% | inhibition at 0.5 µM (CYP2D6; human, concentration 0.5 μM): -4.76% | inhibition at 5 µM (CYP2D6; human, concentration 5 μM): -2.56% | inhibition at 25 µM (CYP2D6; human, concentration 25 μM): 13.6% | inhibition at 50 µM (CYP2D6; human, concentration 50 μM): 13.4% | inhibition activity against CYP, statement in words (CYP2D6; summary of Table 5): no inhibition activity | inhibition at 10 µM (CYP3A4; concentration 10 μM): 31.8% | IC50 (CYP3A4; [1]): 32.4 µM | inhibition at 0.1 µM (CYP3A4; human, concentration 0.1 μM): 3.09% | inhibition at 0.5 µM (CYP3A4; human, concentration 0.5 μM): 3.7% | inhibition at 5 µM (CYP3A4; human, concentration 5 μM): 24.4% | inhibition at 25 µM (CYP3A4; human, concentration 25 μM): 49.7% | inhibition at 50 µM (CYP3A4; human, concentration 50 μM): 55.5% | inhibition activity against CYP, statement in words (CYP3A4; summary of Table 5): no inhibition activity
